From ChEMBL document CHEMBL3046342, “Synthesis of steroidal thiazolidinones as antibacterial agents based on the in vitro and quantum chemistry calculation” (2013)
≈ marks a conversion by molar mass, not a printed value.

How the values were obtained:
Assay type in all cases: functional
Salmonella typhimurium [1] = experiment: Antibacterial activity against Salmonella enterica subsp. enterica serovar Typhimurium ATCC 13311 assessed as growth inhibition at 10 to 100 ug/uL after 18 hr by disk diffusion method
Streptococcus pyogenes [2] = experiment: Antibacterial activity against Streptococcus pyogenes ATCC 12384 assessed as growth inhibition at 10 to 100 ug/uL after 18 hr by disk diffusion method
Staphylococcus aureus [3] = experiment: Antibacterial activity against Staphylococcus aureus ATCC 13150 assessed as growth inhibition at 10 to 100 ug/uL after 18 hr by disk diffusion method
Escherichia coli [4] = experiment: Antibacterial activity against Escherichia coli ATCC 49696 assessed as growth inhibition at 10 to 100 ug/uL after 18 hr by disk diffusion method
Salmonella typhimurium [5] = experiment: Antibacterial activity against Salmonella enterica subsp. enterica serovar Typhimurium ATCC 13311 assessed as growth inhibition after 18 hr by microbroth dilution method; settings: ATCC 13311, 18 h
Escherichia coli [6] = experiment: Antibacterial activity against Escherichia coli ATCC 49696 assessed as growth inhibition after 18 hr by microbroth dilution method; settings: ATCC 49696, 18 h
Streptococcus pyogenes [7] = experiment: Antibacterial activity against Streptococcus pyogenes ATCC 12384 assessed as growth inhibition after 18 hr by microbroth dilution method; settings: ATCC 12384, 18 h
Staphylococcus aureus [8] = experiment: Antibacterial activity against Staphylococcus aureus ATCC 13150 assessed as growth inhibition after 18 hr by microbroth dilution method; settings: ATCC 13150, 18 h
Escherichia coli [9] = experiment: Antibacterial activity against Escherichia coli ATCC 49696 assessed as growth inhibition at 30 ug/disk after 18 hr by disk diffusion method; settings: ATCC 49696, 18 h, read-out: IZ
Staphylococcus aureus [10] = experiment: Antibacterial activity against Staphylococcus aureus ATCC 13150 assessed as growth inhibition at 30 ug/disk after 18 hr by disk diffusion method; settings: ATCC 13150, 18 h, read-out: IZ
Salmonella typhimurium [11] = experiment: Antibacterial activity against Salmonella enterica subsp. enterica serovar Typhimurium ATCC 13311 assessed as growth inhibition at 30 ug/disk after 18 hr by disk diffusion method; settings: ATCC 13311, 18 h, read-out: IZ
Streptococcus pyogenes [12] = experiment: Antibacterial activity against Streptococcus pyogenes ATCC 12384 assessed as growth inhibition at 30 ug/disk after 18 hr by disk diffusion method; settings: ATCC 12384, 18 h, read-out: IZ

Row | MIC (Salmonella typhimurium [5]) [µg/mL] | MIC (Escherichia coli [6]) [µg/mL] | MIC (Streptococcus pyogenes [7]) [µg/mL] | MIC (Staphylococcus aureus [8]) [µg/mL] | Structure (SMILES) | inhibition zone (IZ) (Salmonella typhimurium [1]) [mm] | inhibition zone (IZ) (Streptococcus pyogenes [2]) [mm] | inhibition zone (IZ) (Staphylococcus aureus [3]) [mm] | inhibition zone (IZ) (Escherichia coli [4]) [mm] | zone of inhibition at 30 µg/disc (Escherichia coli [9]) [mm] | zone of inhibition at 30 µg/disc (Staphylococcus aureus [10]) [mm] | zone of inhibition at 30 µg/disc (Salmonella typhimurium [11]) [mm] | zone of inhibition at 30 µg/disc (Streptococcus pyogenes [12]) [mm]
1 | – | – | – | – | CC(C)CCC[C@@H](C)[C@H]1CC[C@H]2[C@@H]3C/C(=N\NC(=S)NC4CCCCC4)C4CCCC[C@]4(C)[C@H]3CC[C@]12C (some centres undefined) | 10.6 | 9.8 | 9.6 | 11.6 | – | – | – | –
2 | – | – | – | – | CC(=O)O[C@H]1CC[C@@]2(C)C(C1)/C(=N/NC(=S)NC1CCCCC1)C[C@H]1[C@@H]3CC[C@H]([C@H](C)CCCC(C)C)[C@@]3(C)CC[C@@H]12 (some centres undefined) | 10.6 | 12.2 | 11.6 | 13.6 | – | – | – | –
3 | – | – | – | – | CC(C)CCC[C@@H](C)[C@H]1CC[C@H]2[C@@H]3C/C(=N\NC(=S)NC4CCCCC4)C4C[C@@H](Cl)CC[C@]4(C)[C@H]3CC[C@]12C (some centres undefined) | 11.5 | 10.5 | 11.2 | 11.4 | – | – | – | –
4 | 512 (≈ 880 µM) | 128 (≈ 220 µM) | 128 (≈ 220 µM) | 64 (≈ 110 µM) | CC(C)CCC[C@@H](C)[C@H]1CC[C@H]2[C@@H]3C/C(=N\N=C4/SCC(=O)N4C4CCCCC4)C4CCCC[C@]4(C)[C@H]3CC[C@]12C (some centres undefined) | 13.2 | 14.2 | 13.8 | 14 | – | – | – | –
5 | 32 (≈ 51.9 µM) | 32 (≈ 51.9 µM) | 32 (≈ 51.9 µM) | 64 (≈ 104 µM) | CC(C)CCC[C@@H](C)[C@H]1CC[C@H]2[C@@H]3C/C(=N\N=C4/SCC(=O)N4C4CCCCC4)C4C[C@@H](Cl)CC[C@]4(C)[C@H]3CC[C@]12C (some centres undefined) | 19.6 | 21.7 | 20.6 | 22.8 | – | – | – | –
6 | 32 (≈ 50 µM) | 32 (≈ 50 µM) | 64 (≈ 100 µM) | 32 (≈ 50 µM) | CC(=O)O[C@H]1CC[C@@]2(C)C(C1)/C(=N/N=C1\SCC(=O)N1C1CCCCC1)C[C@H]1[C@@H]3CC[C@H]([C@H](C)CCCC(C)C)[C@@]3(C)CC[C@@H]12 (some centres undefined) | 19.2 | 21.6 | 18.8 | 20.8 | – | – | – | –

Row | Structure (SMILES) | MIC (Salmonella typhimurium [5]) [µg/mL] | MIC (Escherichia coli [6]) [µg/mL] | MIC (Streptococcus pyogenes [7]) [µg/mL] | MIC (Staphylococcus aureus [8]) [µg/mL] | inhibition zone (IZ) (Salmonella typhimurium [1]) [mm] | inhibition zone (IZ) (Streptococcus pyogenes [2]) [mm] | inhibition zone (IZ) (Staphylococcus aureus [3]) [mm] | inhibition zone (IZ) (Escherichia coli [4]) [mm] | zone of inhibition at 30 µg/disc (Escherichia coli [9]) [mm] | zone of inhibition at 30 µg/disc (Staphylococcus aureus [10]) [mm] | zone of inhibition at 30 µg/disc (Salmonella typhimurium [11]) [mm] | zone of inhibition at 30 µg/disc (Streptococcus pyogenes [12]) [mm]
7 | CC1(C)S[C@@H]2[C@H](NC(=O)[C@H](N)c3ccc(O)cc3)C(=O)N2[C@H]1C(=O)O [AMOXICILLIN] | 32 (≈ 87.6 µM) | 32 (≈ 87.6 µM) | 32 (≈ 87.6 µM) | 32 (≈ 87.6 µM) | – | – | – | – | 20 | 17 | 17.2 | 18.2
